Reference: US12653785B2, “Compositions and methods for administering a YAP1/WWRT1 inhibiting composition and a GLS1 inhibiting composition” (UNIVERSITY OF PITTSBURGH—OF THE COMMONWEALTH SYSTEM OF …, priority 2020, dated 2026)

Tests used:
[1] = tested on: monocrotaline rat model of PH; conditions: drugs delivered systemically; cited from earlier work
[2] = Encapsulation efficiency, loading and release kinetics of drugs from PLGA microparticles; format: physicochemical; conditions: different formulations (single drug or combination); 0.2% tween 80, 37° C.
Experimental: The morphology of the microparticles was characterized using scanning electron microscopy (SEM—JEOL JSM6510) and the average size of the blank microparticles was determined using dynamic light scattering (Malvern, Worcestershire, UK). The release kinetics of the drugs from PLGA microparticles was determined by incubating 1 mg of microparticles with or without drugs in 1 mL of 0.2% tween 80 (Fisher Scientific, Pittsburgh, PA) in centrifuge tubes on end-over-end rotator at 37° C. Every day for 10 days, the tubes were centrifuged at 2000 g for 5 min, 0.8 mL of the supernatant was retrieved and frozen at −20° C., and 0.8 mL of fresh 0.2% tween 80 was replaced in the tubes. These tubes were then returned to the incubator.
In order to assess the concentration of verteporfin, UV-vis spectroscopy plate reader (SpectraMax, Molecular Devices, Sunnyvale, CA) was utilized. […] Using this wavelength, a standard curve was plotted, and the concentration of the released verteporfin from microparticles was determined. The cumulative amount of verteporfin released from the microparticles was quantified and utilized to determine the percentage encapsulation efficiency and percentage loading.
In order to assess the concentration of CB-839, a high-performance liquid chromatography (HPLC Ultimate 3000, Fisher Scientific, Pittsburgh, PA) protocol was developed. […]

SMILES	reversal of PH (hemodynamic and histopathologic manifestations) [1]	duration of sustained release from PLGA microparticles [2] [days]
CN(C)c1ccc(C2Nc3ccc4ccccc4c3C3=C2C(=O)CC(C)(C)C3)cc1Br (centres unmarked) [C968, 5-(3-Bromo-4-(dimethylamino)phenyl)-2,2-dimethyl-2,3,5,6-tetrahydrobenzo[a]phenanthridin-4(1H)-one]	substantial reversal	–
O=C(Cc1cccc(OC(F)(F)F)c1)Nc1ccc(CCCCc2nnc(NC(=O)Cc3ccccn3)s2)nn1 [CB-839]	substantial reversal	10
C=Cc1c(C)c2cc3nc(cc4[nH]c(cc5nc(cc1[nH]2)C(C)=C5CCC(=O)O)c(CCC(=O)OC)c4C)[C@@]1(C)C3=CC=C(C(=O)OC)[C@H]1C(=O)OC [verteporfin, 3-[(23S,24R)-14-ethenyl-5-(3-methoxy-3-oxopropyl)-22,23-bis(methoxycarbonyl)-4,10,15,24-tetramethyl-25,26,27,28-tetraazahexacyclo[16.6.1.1^3,6.1^8,11.1^13,16.0^19,24]octacosa-1,3,5,7,9,11(27),12,14,16,18(25),19,21-dodecaen-9-yl]propanoic acid]	substantial reversal	6
